Laboratory results: article PMC12284294 (iScience, 2025)

Assays:
FPR1 = molecular target: T1, FPR1 (Homo sapiens, UniProt P21462); assay type: cell-based
T1 construct: expressed in transfected cells; host or cells: HEK293T
T1 sequence (P21462 1-350): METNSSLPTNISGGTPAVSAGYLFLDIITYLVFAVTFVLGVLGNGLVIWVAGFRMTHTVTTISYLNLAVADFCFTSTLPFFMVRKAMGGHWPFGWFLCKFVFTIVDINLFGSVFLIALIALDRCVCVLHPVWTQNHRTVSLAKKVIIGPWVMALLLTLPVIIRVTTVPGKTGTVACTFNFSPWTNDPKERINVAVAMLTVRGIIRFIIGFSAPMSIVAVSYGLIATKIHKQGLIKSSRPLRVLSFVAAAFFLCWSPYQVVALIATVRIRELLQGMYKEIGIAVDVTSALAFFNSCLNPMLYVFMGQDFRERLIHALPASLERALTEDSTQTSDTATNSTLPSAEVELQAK

[1] = tested on: human polymorphonuclear granulocytes (PMN; neutrophils); assay type: cell-based; details: SARS-CoV-2 omicron B.1.1.529 spike pool peptides, 10 µM, PMN, n=6

Sequence	non-activators of FPR1 and PMNs: FPR1 (FPR1)	non-activators of FPR1 and PMNs: PMNs [1]	significant PMN activators (group of the spike peptide pool screening) [1]	significant FPR1 activators (group of the spike peptide pool screening) (FPR1)
LQDVVNHNAQALNTL	non-activators of FPR1 and PMNs	non-activators of FPR1 and PMNs	–	–
RQIAPGQTGNIADYN	non-activators of FPR1 and PMNs	non-activators of FPR1 and PMNs	–	–
DLICAQKFKGLTVLP	–	–	significant PMN activators	–
TQTKSHRRARSVASQ	non-activators of FPR1 and PMNs	non-activators of FPR1 and PMNs	–	–
STASALGKLQDVVNH	non-activators of FPR1 and PMNs	non-activators of FPR1 and PMNs	–	–
CYFPLKSYSFRPTYG	non-activators of FPR1 and PMNs	non-activators of FPR1 and PMNs	–	–
IAARDLICAQKFKGL	–	–	significant PMN activators	–
NVTWFHVISGTNGTK	–	–	significant PMN activators	significant FPR1 activators
DYSVLYNLAPFFTFK	–	–	significant PMN activators	significant FPR1 activators
KLDSKVSGNYNYLYR	non-activators of FPR1 and PMNs	non-activators of FPR1 and PMNs	–	–
KQLSSKFGAISSVLN	non-activators of FPR1 and PMNs	non-activators of FPR1 and PMNs	–	–
ASYQTQTKSHRRARS	non-activators of FPR1 and PMNs	non-activators of FPR1 and PMNs	–	–
VAVLYQGVNCTEVPV	non-activators of FPR1 and PMNs	non-activators of FPR1 and PMNs	–	–
YQGVNCTEVPVAIHA	non-activators of FPR1 and PMNs	non-activators of FPR1 and PMNs	–	–
SHRRARSVASQSIIA	non-activators of FPR1 and PMNs	non-activators of FPR1 and PMNs	–	–
KIYSKHTPIIVREPE	non-activators of FPR1 and PMNs	non-activators of FPR1 and PMNs	–	–
VNHNAQALNTLVKQL	non-activators of FPR1 and PMNs	non-activators of FPR1 and PMNs	–	–
AGFNCYFPLKSYSFR	non-activators of FPR1 and PMNs	non-activators of FPR1 and PMNs	–	–
TSNQVAVLYQGVNCT	non-activators of FPR1 and PMNs	non-activators of FPR1 and PMNs	–	–
KRALTGIAVEQDKNT	non-activators of FPR1 and PMNs	non-activators of FPR1 and PMNs	–	–
AQKFKGLTVLPPLLT	–	–	–	significant FPR1 activators
NDGVYFASIEKSNII	non-activators of FPR1 and PMNs	non-activators of FPR1 and PMNs	–	–

Sequence	non-activators of FPR1 and PMNs: FPR1 (FPR1)	non-activators of FPR1 and PMNs: PMNs [1]	significant PMN activators (group of the spike peptide pool screening) [1]	significant FPR1 activators (group of the spike peptide pool screening) (FPR1)
PFLDHKNNKSWMESE	non-activators of FPR1 and PMNs	non-activators of FPR1 and PMNs	–	–
GHQPYRVVVLSFELL	–	–	significant PMN activators	significant FPR1 activators
IIVREPEDLPQGFSA	non-activators of FPR1 and PMNs	non-activators of FPR1 and PMNs	–	–
GDEVRQIAPGQTGNI	non-activators of FPR1 and PMNs	non-activators of FPR1 and PMNs	–	–
DLFLPFFSNVTWFHV	–	–	significant PMN activators	significant FPR1 activators
ISTEIYQAGNKPCNG	non-activators of FPR1 and PMNs	non-activators of FPR1 and PMNs	–	–
CNGVAGFNCYFPLKS	non-activators of FPR1 and PMNs	non-activators of FPR1 and PMNs	–	–
PGQTGNIADYNYKLP	non-activators of FPR1 and PMNs	non-activators of FPR1 and PMNs	–	–
IYQAGNKPCNGVAGF	non-activators of FPR1 and PMNs	non-activators of FPR1 and PMNs	–	–
FHVISGTNGTKRFDN	non-activators of FPR1 and PMNs	non-activators of FPR1 and PMNs	–	–
PGTNTSNQVAVLYQG	non-activators of FPR1 and PMNs	non-activators of FPR1 and PMNs	–	–
CPFDEVFNATRFASV	non-activators of FPR1 and PMNs	non-activators of FPR1 and PMNs	–	–
CTQLKRALTGIAVEQ	non-activators of FPR1 and PMNs	non-activators of FPR1 and PMNs	–	–
APFFTFKCYGVSPTK	non-activators of FPR1 and PMNs	non-activators of FPR1 and PMNs	–	–
FERDISTEIYQAGNK	non-activators of FPR1 and PMNs	non-activators of FPR1 and PMNs	–	–
IYKTPPIKYFGGFNF	–	–	significant PMN activators	–
PFFSNVTWFHVISGT	–	–	significant PMN activators	significant FPR1 activators
LLLQYGSFCTQLKRA	non-activators of FPR1 and PMNs	non-activators of FPR1 and PMNs	–	–
NTLVKQLSSKFGAIS	non-activators of FPR1 and PMNs	non-activators of FPR1 and PMNs	–	–
LYNLAPFFTFKCYGV	–	–	significant PMN activators	significant FPR1 activators
KGLTVLPPLLTDEMI	–	–	–	significant FPR1 activators
